Reference: ChEMBL document CHEMBL1126104, “Synthesis and antiviral activity of some new S-adenosyl-L-homocysteine derivatives” (1992)
In brackets after ≈: the same amount, converted by molar mass.

Tests used:
[1] = test system: Human immunodeficiency virus 1; assay: Antiviral activity against (HIV-1) in MT-4 cells Value in parentheses is inhibitory concentration for cell growth (MT-4); format: functional, MT4
Human alphaherpesvirus 2 = assay: Antiviral activity against HSV-2(G) strain in primary rabbit kidney (PRK) / embryonic skin-muscle (E6SM) fibroblast culture lines; format: functional; details: Human alphaherpesvirus 2, Muscle tissue
Coxsackievirus B4 [2] = assay: Antiviral activity against coxsackie B4 in Vero cell culture lines; format: functional; details: Enterovirus B
Coxsackievirus B4 [3] = assay: Antiviral activity against coxsackie B4 virus in HeLa cell culture lines; format: functional; details: Enterovirus B
Semliki Forest virus = assay: Antiviral activity against semliki forest virus (SFV) in Vero cell culture lines; format: functional
[4] = test system: Vesicular stomatitis virus; assay: Antiviral activity against vesicular stomatitis virus (VSV) in HeLa cell culture lines,; format: functional
[5] = test system: Vesicular stomatitis virus; assay: Antiviral activity against vesicular stomatitis virus (VSV) in primary rabbit kidney (PRK) / embryonic skin-muscle (E6SM) fibroblast culture lines; format: functional; details: Muscle tissue
Vaccinia virus = assay: Antiviral activity against vaccinia virus (VV) in primary rabbit kidney (PRK) / embryonic skin-muscle (E6SM) fibroblast culture lines; format: functional; details: Orthopoxvirus vaccinia, Muscle tissue
Human alphaherpesvirus 1 = assay: Antiviral activity against HSV-1(KOS) strain in primary rabbit kidney (PRK) / embryonic skin-muscle (E6SM) fibroblast culture lines; format: functional; details: Human alphaherpesvirus 1, Muscle tissue
Poliovirus 1 = assay: Antiviral activity against polio virus type 1 in HeLa cell culture lines; format: functional; details: Enterovirus C
Human respirovirus 3 = assay: Antiviral activity against parainfluenza virus type 3 in Vero cell culture lines; format: functional
Sindbis virus = assay: Antiviral activity against sindbis virus in Vero cell culture lines; format: functional
[6] = test system: Mammalian orthoreovirus 1; assay: Antiviral activity against reovirus type 1 in Vero cell culture lines; format: functional

SMILES	MIC [1] [µg/mL]	MIC (Human alphaherpesvirus 2) [µg/mL]	MIC (Coxsackievirus B4 [2]) [µg/mL]	MIC (Coxsackievirus B4 [3]) [µg/mL]	MIC (Semliki Forest virus) [µg/mL]	MIC [4] [µg/mL]	MIC [5] [µg/mL]	MIC (Vaccinia virus) [µg/mL]	MIC (Human alphaherpesvirus 1) [µg/mL]	MIC (Poliovirus 1) [µg/mL]	MIC (Human respirovirus 3) [µg/mL]	MIC (Sindbis virus) [µg/mL]	MIC [6] [µg/mL]
Nc1ncnc2c([C@H]3CC[C@@H](CCl)O3)n[nH]c12	> 100	> 200	> 200	> 400	> 400	> 400	> 400	> 400	> 200	> 400	> 200	> 200	> 200
Nc1nccc2c1ncn2[C@H]1CC[C@@H](CO)O1	> 100	> 100	> 100	> 200	> 100	> 200	> 100	> 100	> 200	> 200	> 100	> 100	> 100
Nc1ncnc2c1ncn2[C@@H]1O[C@H](CCl)C[C@H]1O	> 100	> 100	> 40	> 200	> 40	> 200	> 400	> 200	> 200	> 200	> 40	> 40	> 40
CC(C)(C)C(=O)OCn1nc([C@@H]2O[C@H](CO)C[C@H]2O)c2ncnc(N)c21	> 20	> 100	> 100	> 100	> 100	> 100	> 100	> 100	> 100	> 100	> 100	> 100	> 100
Nc1ncnc2c([C@@H]3O[C@H](CSCCC(N)C(=O)O)C[C@H]3O)n[nH]c12 (stereo partly drawn)	> 100	> 40	> 40	> 40	> 40	> 40	> 40	> 40	> 40	> 40	> 40	> 40	> 40
COC(=O)C(CCSC[C@@H]1C[C@@H](O)[C@H](n2ccc3c(N)ncnc32)O1)NC(=O)C(F)(F)F (stereo partly drawn)	> 100	> 200	> 200	> 200	> 400	300 (≈ 628 µM)	20 (≈ 41.9 µM)	70 (≈ 147 µM)	> 200	> 400	> 200	> 400	40 (≈ 83.8 µM)
Nc1nccc2ncn([C@H]3C[C@H](O)[C@@H](CO)O3)c12	> 50	100 (≈ 400 µM)	> 400	> 200	> 400	> 200	> 200	> 200	150 (≈ 599 µM)	> 200	> 400	> 400	> 400
Nc1ncnc2c([C@H]3C[C@@H](O)[C@@H](CO)O3)n[nH]c12	> 100	> 400	300 (≈ 1190 µM)	> 400	> 400	> 400	> 400	> 400	> 400	> 400	> 400	> 400	> 400
COC(=O)C(N)CCSC[C@H]1OC(n2ccc3c(N)ncnc32)[C@H](O)[C@@H]1O (stereo partly drawn)	> 20	20 (≈ 50.3 µM)	> 100	> 200	> 200	20 (≈ 50.3 µM)	20 (≈ 50.3 µM)	4 (≈ 10.1 µM)	> 100	> 200	> 200	> 200	> 200
CC(=O)NC(CCSC[C@H]1OC(n2ccc3c(N)ncnc32)[C@H](O)[C@@H]1O)C(=O)OC(C)C (stereo partly drawn)	> 4	40 (≈ 85.6 µM)	40 (≈ 85.6 µM)	70 (≈ 150 µM)	> 200	20 (≈ 42.8 µM)	10 (≈ 21.4 µM)	10 (≈ 21.4 µM)	> 100	100 (≈ 214 µM)	> 100	> 100	> 70
CCCCOC(=O)C(N)CCSC[C@H]1OC(n2ccc3c(N)ncnc32)[C@H](O)[C@@H]1O (stereo partly drawn)	> 1.6	> 10	> 200	> 40	> 200	7 (≈ 15.9 µM)	20 (≈ 45.5 µM)	2 (≈ 4.55 µM)	20 (≈ 45.5 µM)	> 100	150 (≈ 341 µM)	> 200	70 (≈ 159 µM)
CCCOC(=O)C(N)CCSC[C@H]1OC(n2ccc3c(N)ncnc32)[C@H](O)[C@@H]1O (stereo partly drawn)	> 20	2 (≈ 4.7 µM)	70 (≈ 165 µM)	> 100	> 150	20 (≈ 47 µM)	2 (≈ 4.7 µM)	1 (≈ 2.35 µM)	10 (≈ 23.5 µM)	> 100	> 70	> 70	> 70
Nc1ncnc2c(C3O[C@H](CCl)[C@@H](O)[C@H]3O)n[nH]c12 (stereo partly drawn)	> 100	> 200	70 (≈ 245 µM)	> 400	> 100	> 200	> 400	300 (≈ 1050 µM)	> 200	> 400	70 (≈ 245 µM)	> 100	> 100
CCCOC(=O)C(CCSC[C@H]1OC(n2ccc3c(N)ncnc32)[C@H](O)[C@@H]1O)NC(C)=O (stereo partly drawn)	> 4	20 (≈ 42.8 µM)	20 (≈ 42.8 µM)	20 (≈ 42.8 µM)	> 40	20 (≈ 42.8 µM)	7 (≈ 15 µM)	7 (≈ 15 µM)	40 (≈ 85.6 µM)	40 (≈ 85.6 µM)	20 (≈ 42.8 µM)	> 40	15 (≈ 32.1 µM)
CCOC(=O)C(CCSC[C@H]1OC(n2ccc3c(N)ncnc32)[C@H](O)[C@@H]1O)NC(C)=O (stereo partly drawn)	> 4	20 (≈ 44.1 µM)	20 (≈ 44.1 µM)	70 (≈ 154 µM)	> 100	> 20	5 (≈ 11 µM)	15 (≈ 33.1 µM)	70 (≈ 154 µM)	70 (≈ 154 µM)	> 40	> 70	> 30
COCC(=O)NC(CCSC[C@H]1OC(n2ccc3c(N)ncnc32)[C@H](O)[C@@H]1O)C(=O)OC(C)C (stereo partly drawn)	> 100	70 (≈ 141 µM)	> 100	> 200	> 200	100 (≈ 201 µM)	20 (≈ 40.2 µM)	7 (≈ 14.1 µM)	> 150	> 200	> 200	> 200	> 200
